ChEMBL document CHEMBL1201862, “PubChem BioAssay data set” (2004)
Active and inactive are the calls of the source.

Columns and labels:
[1] = Intein inhibitors as potential Tuberculosis drugs, a cytotoxicity screen. [Related pubchem assays (depositor defined):AID2221, AID2223, AID434968, AID435010, AID449749, AID449750, AID489010]; assay type: functional
[2] = Luminescent dose response cell-based high throughput screening assay for inhibitors of the Janus kinase 2 mutant JAK2V617F. [Related pubchem assays: 1446 (Primary screen.), 1521 (Confirmation assay.), 1486 (Counter screen.)]; assay type: functional
[3] = biological target: T1, Protein RecA (Mycobacterium tuberculosis, UniProt P9WHJ3); test: Fluorescence Cell-Free Homogeneous Dose Retest to Identify Inhibitors of RecA-Intein Splicing Activity. [Related pubchem assays (depositor defined):AID2097, AID2223, AID489010, AID492950]; assay type: functional
T1 sequence (P9WHJ3 whole entry): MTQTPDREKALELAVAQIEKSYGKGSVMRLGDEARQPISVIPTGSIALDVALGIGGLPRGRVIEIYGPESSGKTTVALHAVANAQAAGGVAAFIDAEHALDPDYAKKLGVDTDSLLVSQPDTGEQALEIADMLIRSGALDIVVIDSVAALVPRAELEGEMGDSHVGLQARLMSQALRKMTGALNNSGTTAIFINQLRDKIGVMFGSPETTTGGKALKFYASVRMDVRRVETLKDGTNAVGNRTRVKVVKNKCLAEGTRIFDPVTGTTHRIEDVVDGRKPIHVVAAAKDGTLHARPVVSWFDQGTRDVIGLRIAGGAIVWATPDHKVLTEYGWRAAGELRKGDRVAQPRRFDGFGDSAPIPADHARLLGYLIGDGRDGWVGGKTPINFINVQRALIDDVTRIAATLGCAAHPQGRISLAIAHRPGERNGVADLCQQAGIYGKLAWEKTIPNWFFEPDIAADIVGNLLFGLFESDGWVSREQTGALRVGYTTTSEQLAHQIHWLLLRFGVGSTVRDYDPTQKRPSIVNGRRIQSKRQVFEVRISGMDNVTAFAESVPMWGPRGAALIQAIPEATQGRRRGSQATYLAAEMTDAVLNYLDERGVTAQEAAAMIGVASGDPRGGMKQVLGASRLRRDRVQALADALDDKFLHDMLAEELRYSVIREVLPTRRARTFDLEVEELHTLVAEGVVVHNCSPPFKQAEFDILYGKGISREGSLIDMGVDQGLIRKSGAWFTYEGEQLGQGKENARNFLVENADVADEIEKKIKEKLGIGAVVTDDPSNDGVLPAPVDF

[4] = biological target: T2, Replicative DNA helicase DnaB (Mycobacterium tuberculosis, UniProt P9WMR3); test: DnaB intein splicing inhibitors, dose response, biochemical, cell-free fluorescence (AID 449749); assay type: functional
T2 sequence (P9WMR3 whole entry): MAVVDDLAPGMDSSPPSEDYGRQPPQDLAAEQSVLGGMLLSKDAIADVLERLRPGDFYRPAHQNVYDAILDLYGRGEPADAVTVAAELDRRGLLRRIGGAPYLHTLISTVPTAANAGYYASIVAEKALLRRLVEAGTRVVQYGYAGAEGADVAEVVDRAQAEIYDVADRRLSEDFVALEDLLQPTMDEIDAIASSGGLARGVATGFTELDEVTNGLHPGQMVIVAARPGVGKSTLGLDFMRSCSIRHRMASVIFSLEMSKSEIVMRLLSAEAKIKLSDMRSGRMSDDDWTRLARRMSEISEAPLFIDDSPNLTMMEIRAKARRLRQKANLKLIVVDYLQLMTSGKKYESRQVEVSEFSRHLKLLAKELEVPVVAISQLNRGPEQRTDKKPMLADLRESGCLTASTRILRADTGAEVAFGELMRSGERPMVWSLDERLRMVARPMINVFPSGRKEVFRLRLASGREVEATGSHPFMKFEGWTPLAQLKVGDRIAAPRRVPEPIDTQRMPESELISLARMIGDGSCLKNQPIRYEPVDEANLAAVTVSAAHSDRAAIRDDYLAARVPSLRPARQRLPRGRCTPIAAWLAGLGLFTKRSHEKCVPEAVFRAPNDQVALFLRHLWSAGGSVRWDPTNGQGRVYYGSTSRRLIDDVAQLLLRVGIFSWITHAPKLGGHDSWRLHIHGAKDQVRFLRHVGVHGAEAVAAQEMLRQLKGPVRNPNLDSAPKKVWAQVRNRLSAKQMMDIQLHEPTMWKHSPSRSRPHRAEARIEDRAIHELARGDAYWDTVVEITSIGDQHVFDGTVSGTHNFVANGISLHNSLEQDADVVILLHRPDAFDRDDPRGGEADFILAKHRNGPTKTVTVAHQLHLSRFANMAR

[5] = mammalian cell cytotoxicity, dose response, cytotoxicity control, plate reader, cherry-pick samples (AID 504397); assay type: functional, cell-based
[6] = biological target: T3, Kappa-type opioid receptor (Homo sapiens, UniProt P41145); test: SAR analysis of small molecule agonists of the kappa opioid receptor via a luminescent beta-arrestin assay - Set 3. [Related pubchem assays (depositor defined):AID1777, AID1785, AID1786, AID1966, AID2133, AID2136, AID2284, AID2500]; assay type: functional
T3 sequence (P41145 whole entry): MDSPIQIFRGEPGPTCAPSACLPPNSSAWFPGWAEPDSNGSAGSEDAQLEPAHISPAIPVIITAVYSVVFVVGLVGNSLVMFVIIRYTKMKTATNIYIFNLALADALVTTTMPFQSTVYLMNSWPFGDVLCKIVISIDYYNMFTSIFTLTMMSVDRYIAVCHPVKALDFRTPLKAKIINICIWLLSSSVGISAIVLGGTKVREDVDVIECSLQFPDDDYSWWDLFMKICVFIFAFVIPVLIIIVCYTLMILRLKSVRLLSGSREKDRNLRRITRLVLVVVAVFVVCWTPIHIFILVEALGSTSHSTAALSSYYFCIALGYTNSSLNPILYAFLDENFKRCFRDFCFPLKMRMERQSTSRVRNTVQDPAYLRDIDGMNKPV

[7] = biological target: T3, Kappa-type opioid receptor; test: KOR agonist analogs, arrestin-GFP redistribution, SAR follow-up, imaging, image-based, set 3 (AID 488833); assay type: functional
[8] = biological target: Mu-type opioid receptor (Homo sapiens, UniProt P35372); test: SAR Analysis of Agonists of the MOR Receptor using an Image-Based Assay - Set 3. [Related pubchem assays (depositor defined):AID1777, AID1785, AID1786, AID1966, AID2133, AID2136, AID2284, AID2285, AID2352]; assay type: functional
Mu-type opioid receptor, sequence (P35372 whole entry): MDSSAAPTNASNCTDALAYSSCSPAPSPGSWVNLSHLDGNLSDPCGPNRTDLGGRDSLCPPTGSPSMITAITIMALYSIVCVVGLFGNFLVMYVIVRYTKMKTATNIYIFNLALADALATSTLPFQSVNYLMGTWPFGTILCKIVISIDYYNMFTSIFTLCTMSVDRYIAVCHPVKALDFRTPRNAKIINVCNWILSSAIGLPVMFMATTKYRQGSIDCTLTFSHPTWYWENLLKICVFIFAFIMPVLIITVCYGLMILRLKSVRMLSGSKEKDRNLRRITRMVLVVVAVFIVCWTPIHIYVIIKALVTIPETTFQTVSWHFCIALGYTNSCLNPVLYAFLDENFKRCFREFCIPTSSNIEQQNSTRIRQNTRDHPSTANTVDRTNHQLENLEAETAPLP

[9] = biological target: Delta-type opioid receptor (Homo sapiens, UniProt P41143); test: SAR Analysis of Agonists of the DOR Receptor using an Image-Based Assay - Set 3. [Related pubchem assays (depositor defined):AID1777, AID1786]; assay type: functional
Delta-type opioid receptor, sequence (P41143 whole entry): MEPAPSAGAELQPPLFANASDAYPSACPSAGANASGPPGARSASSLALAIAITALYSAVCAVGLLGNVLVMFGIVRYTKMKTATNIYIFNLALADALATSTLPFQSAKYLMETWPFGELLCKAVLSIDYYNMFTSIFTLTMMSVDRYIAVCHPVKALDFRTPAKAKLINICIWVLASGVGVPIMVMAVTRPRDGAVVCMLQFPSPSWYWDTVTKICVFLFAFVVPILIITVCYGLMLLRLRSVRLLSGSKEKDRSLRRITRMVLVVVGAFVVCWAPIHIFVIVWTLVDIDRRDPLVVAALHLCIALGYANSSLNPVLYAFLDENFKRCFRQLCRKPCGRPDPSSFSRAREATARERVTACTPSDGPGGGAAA

[10] = biological target: T4, Cannabinoid receptor 2 (Homo sapiens, UniProt P34972); test: SAR analysis of antagonists of the Cannabinoid Receptor 2 using an Image-Based Assay - Set 3. [Related pubchem assays (depositor defined):AID2013, AID2026]; assay type: functional
T4 sequence (P34972 whole entry): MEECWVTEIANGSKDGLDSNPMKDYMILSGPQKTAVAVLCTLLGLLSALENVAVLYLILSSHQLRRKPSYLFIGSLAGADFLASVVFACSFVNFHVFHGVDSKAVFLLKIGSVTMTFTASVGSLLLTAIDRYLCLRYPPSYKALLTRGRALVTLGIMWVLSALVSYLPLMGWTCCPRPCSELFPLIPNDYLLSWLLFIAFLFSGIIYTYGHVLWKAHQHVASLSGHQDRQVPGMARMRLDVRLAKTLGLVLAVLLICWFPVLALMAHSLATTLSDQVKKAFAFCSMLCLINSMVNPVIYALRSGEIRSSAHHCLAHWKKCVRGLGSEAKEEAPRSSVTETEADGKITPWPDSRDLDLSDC

[11] = biological target: T4, Cannabinoid receptor 2; test: SAR analysis of agonists of the Cannabinoid Receptor 2 using an Image-Based Assay - Set 3. [Related pubchem assays (depositor defined):AID2013, AID2026]; assay type: functional
[12] = biological target: G-protein coupled receptor 55 (Homo sapiens, UniProt Q9Y2T6); test: SAR Analysis of Selective Antagonists of GPR55 using an Image-Based Assay - Set 4. [Related pubchem assays (depositor defined):AID2013, AID2026]; assay type: functional;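 further: antagonism of response to 5 µM lysophosphatidylinositol agonist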
G-protein coupled receptor 55, sequence (Q9Y2T6 whole entry): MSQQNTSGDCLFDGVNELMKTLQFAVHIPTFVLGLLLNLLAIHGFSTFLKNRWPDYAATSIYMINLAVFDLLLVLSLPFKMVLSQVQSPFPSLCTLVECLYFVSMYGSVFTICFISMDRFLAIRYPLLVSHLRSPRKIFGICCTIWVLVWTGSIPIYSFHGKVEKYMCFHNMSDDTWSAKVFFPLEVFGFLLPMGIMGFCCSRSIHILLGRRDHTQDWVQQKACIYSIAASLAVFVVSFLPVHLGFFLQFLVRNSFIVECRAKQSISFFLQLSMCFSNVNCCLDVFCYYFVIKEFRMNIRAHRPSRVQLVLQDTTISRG

[13] = biological target: T5, Cannabinoid receptor 1 (Homo sapiens, UniProt P21554); test: SAR analysis of antagonists of the Cannabinoid Receptor 1 using an Image-Based Assay - Set 4. [Related pubchem assays (depositor defined):AID2013, AID2026]; assay type: functional
T5 sequence (P21554 whole entry): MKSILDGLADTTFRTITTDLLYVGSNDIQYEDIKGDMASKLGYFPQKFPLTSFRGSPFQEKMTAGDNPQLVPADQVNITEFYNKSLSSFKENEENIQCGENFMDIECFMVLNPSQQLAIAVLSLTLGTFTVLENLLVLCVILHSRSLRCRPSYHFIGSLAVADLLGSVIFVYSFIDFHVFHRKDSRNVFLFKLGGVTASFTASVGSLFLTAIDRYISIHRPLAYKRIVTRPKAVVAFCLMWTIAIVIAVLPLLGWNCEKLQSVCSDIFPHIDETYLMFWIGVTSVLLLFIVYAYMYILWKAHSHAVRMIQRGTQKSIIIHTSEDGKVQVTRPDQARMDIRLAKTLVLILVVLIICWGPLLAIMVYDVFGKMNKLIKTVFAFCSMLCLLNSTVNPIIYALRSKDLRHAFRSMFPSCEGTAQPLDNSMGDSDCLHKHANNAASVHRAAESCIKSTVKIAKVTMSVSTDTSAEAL

[14] = biological target: T5, Cannabinoid receptor 1; test: SAR analysis of agonists of the Cannabinoid Receptor 1 using an Image-Based Assay - Set 4. [Related pubchem assays (depositor defined):AID2013, AID2026]; assay type: functional
[15] = biological target: T6, G-protein coupled receptor 35 (Homo sapiens, UniProt Q9HC97); test: SAR analysis of Antagonists of the GPR35 Receptor using an Image-Based Assay - Set 6. [Related pubchem assays (depositor defined):AID2013, AID2026]; assay type: functional
T6 sequence (Q9HC97 whole entry): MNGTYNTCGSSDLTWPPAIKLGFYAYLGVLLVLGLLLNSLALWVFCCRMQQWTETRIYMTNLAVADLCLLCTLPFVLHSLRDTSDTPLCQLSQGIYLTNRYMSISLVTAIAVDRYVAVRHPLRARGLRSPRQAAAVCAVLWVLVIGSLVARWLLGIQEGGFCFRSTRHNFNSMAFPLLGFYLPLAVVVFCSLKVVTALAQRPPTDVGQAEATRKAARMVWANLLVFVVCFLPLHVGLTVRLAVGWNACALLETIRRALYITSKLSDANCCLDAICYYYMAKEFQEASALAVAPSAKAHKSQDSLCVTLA

[16] = biological target: T6, G-protein coupled receptor 35; test: SAR analysis of Agonists of the GPR35 Receptor using an Image-Based Assay - Set 4. [Related pubchem assays (depositor defined):AID2013, AID2026]; assay type: functional
[17] = biological target: T7, Type-1 angiotensin II receptor (Homo sapiens, UniProt P30556); test: AT1 receptor agonists, dose response, selectivity assay for APJ receptor agonist project, cell-based, uHTS hits (AID 488865); assay type: functional;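 further: beta-arrestin recruitment to AT1 measured by enzyme fragment complementation luminescence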
T7 sequence (P30556 whole entry): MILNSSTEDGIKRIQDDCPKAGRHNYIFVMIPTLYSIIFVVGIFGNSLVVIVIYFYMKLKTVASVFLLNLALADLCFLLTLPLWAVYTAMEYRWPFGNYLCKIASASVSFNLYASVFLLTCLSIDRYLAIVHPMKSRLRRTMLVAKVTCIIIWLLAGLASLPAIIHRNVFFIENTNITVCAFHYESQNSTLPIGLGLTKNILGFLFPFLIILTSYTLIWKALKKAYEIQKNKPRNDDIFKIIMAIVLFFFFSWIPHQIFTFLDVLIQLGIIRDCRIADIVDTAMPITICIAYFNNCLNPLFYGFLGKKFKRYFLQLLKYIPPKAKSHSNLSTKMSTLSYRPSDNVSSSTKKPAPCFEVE
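Wherever CC50 is given: cells exposed to compound for 72 hours before luminescence readout.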

Compound: Cc1ccc(C)c(Sc2ccc(NC(=O)CCl)cc2)c1
- CC50 [1]: 7.6 µM (active)
- IC50 [2]: 0.743 µM (active)
- EC50 [3]: 0.602 µM (active)
- AC50 [4]: 2.3 µM (active)

Compound: O=C(Nc1ccccc1N1CCOCC1)C1CCN(S(=O)(=O)c2ccc(F)cc2)CC1
- AC50 [5]: > 350 µM (inactive)

Compound: FC(F)(F)c1cc(CSc2nnc(-c3ccccn3)n2Cc2cccs2)ccc1Cl
- EC50 [6]: 0.432 µM (active)
- EC50 [7]: 1.38 µM (active)
- EC50 [8]: > 32 µM (inactive)
- EC50 [9]: > 32 µM (inactive)

Compound: Cc1nnc(-c2ccccc2)c2cn(-c3ccc(Cl)cc3)nc12
- IC50 [10]: > 32 µM (inactive)
- EC50 [11]: > 32 µM (inactive)
- IC50 [12]: 1.77 µM (active)
- IC50 [13]: 3.63 µM (active)
- EC50 [14]: > 32 µM (inactive)
- IC50 [15]: 23 µM (inactive)
- EC50 [16]: > 32 µM (inactive)

Compound: Cc1ccc(/C=N/NC(=O)CSc2nnc(-c3ccccc3)n2-c2ccc(Cl)cc2)o1
- EC50 [17]: > 100 µM (inactive)
